Measurements published in patent US20240400547A1, “2,6-PIPERIDINEDIONE COMPOUND AND APPLICATION THEREOF” (MEDSHINE DISCOVERY INC., priority 2021, published 2024).
Counter-ions that a name gives are not always drawn.

Assays:
IRAK4 = target: T1, IRAK4 (Homo sapiens, UniProt Q9NWZ3); assay: Target protein degradation in K562 IRAK4-HiBiT cells (Nano-Glo HiBiT); type: cell-based; details: 16 to 18 hours; for Dmax: read-out: Maximum degradation rate
T1 construct: expressed in transfected cells; host or cells: K562 IRAK4-HiBiT cells
T1 sequence (Q9NWZ3 1-460): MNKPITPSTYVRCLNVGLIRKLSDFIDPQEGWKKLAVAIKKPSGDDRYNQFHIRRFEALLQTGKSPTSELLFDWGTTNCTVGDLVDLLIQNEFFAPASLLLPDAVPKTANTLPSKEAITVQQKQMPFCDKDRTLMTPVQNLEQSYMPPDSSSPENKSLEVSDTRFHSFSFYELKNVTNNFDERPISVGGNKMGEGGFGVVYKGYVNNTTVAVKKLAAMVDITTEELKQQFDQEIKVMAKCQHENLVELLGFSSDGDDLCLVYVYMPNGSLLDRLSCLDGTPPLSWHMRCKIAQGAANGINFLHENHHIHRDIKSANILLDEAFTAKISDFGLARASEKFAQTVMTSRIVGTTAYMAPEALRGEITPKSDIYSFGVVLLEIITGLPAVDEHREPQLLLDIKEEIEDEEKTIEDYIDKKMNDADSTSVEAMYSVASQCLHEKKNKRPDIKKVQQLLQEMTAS
Protocol: Experimental objective: The experiment aims to evaluate the degradation effect of the test compounds on the target protein IRAK4 in K562 IRAK4-HiBiT cells.
• Cells: K562 IRAK4-HiBiT cells • Culture medium: RPMI 1640+10% fetal bovine serum+2 mM glutamine+1 mM sodium pyruvate+penicillin/streptomycin. • Positive control: 1000 nM; negative control: 0.1% DMSO.
• (1). The powder of the compound to be tested was dissolved in DMSO to a storage concentration of 10 mM. A total of 9 μL of the 10 mM of the compound to be tested was manually pipetted into the 1st and 13th columns of the LDV plate using a pipettor; • (2). A volume of 6 μL of DMSO was added to columns 2-12 and 14-24 using a Multidrop Combi; • (3). A 3-fold dilution of the test compounds (3 μL+6 μL) was performed using Bravo, for columns 1-11 and 13-23; • (4). According to the plate layout, 25 nL of compound solution (columns 1-24 of the LDV plate) was transferred to the experimental plate using Echo; • (5) 25 nL of the 1 mM positive control solution was transferred to the assay plate as a 100% degradation control (i.e. LC, HPE), and 25 nL of DMSO was transferred to the assay plate as a 0% control (i.e. HC, ZPE).
• (1) The culture medium was discarded, and the cells were washed once with DPBS, digested with trypsin, counted, and prepared into a cell suspension of […]. • (2) Using the MultiDrop Combi at a medium speed, 25 μL/well of the cell suspension was added to the experimental plate containing the test compounds; • (3) The experimental plate containing cells was returned to the incubator and cultured for 16 to 18 hours at 37° C. and 5% CO2.
• (1). Using the MultiDrop Combi at a high speed, 25 μL/well of the assay reagent (NanoGlo lytic solution+substrate+LgBit protein) was added to the assay plate, followed by shaking for 10 minutes; • (2) The plate was centrifuged at 2000 rpm for 1 minute to remove any bubbles; • (3) Readings were obtained by using an Envision, US Luminescence reader.
To calculate the degradation rate (DR) of the test compounds, the following formula is used: IR (%)=(RLU vehicle control−RLU compound)/(RLU vehicle control−RLU positive control)×100%. The solvent control refers to the blank control. The degradation rates of compounds at different concentrations were calculated in Excel, and then XLFit software was used to plot inhibition curves and calculate relevant parameters, including minimum degradation rate, maximum degradation rate, and DC50.

[1] = Pharmacokinetic evaluation in mice; type: in vivo, C57BL/6N or CD-1 male mice; details: intragastric administration 10 mg/kg, experimental operation A, fasted overnight
Source text: In this study, C57BL/6N or CD-1 male mice were selected as test animals, and LC/MS/MS method was used to quantify plasma concentrations of the test compound intravenously injected or gavage to mice at different time points, so as to evaluate the pharmacokinetic profile of the compounds of the present disclosure in mice.
C57BL/6N mice (male, 20 to 30 g, 7 to 10 weeks old, Beijing VitalRiver) or CD-1 mice (male, 20 to 35 g, 7 to 10 weeks old, Beijing VitalRiver).
• The test compounds, either as clear or suspension solutions, were administered intravenously through the tail vein to C57BL/6N mice or CD-1 mice (either fasted overnight or fed) (vehicle: 10% DMSO/10% solutol/80% H2O or 5% DMSO/10% solutol/85% H2O), or intragastrically administered to C57BL/6N mice or CD-1 mice (either fasted overnight or fed). For intravenous injection, blood 50 μL was collected via the cheek vein puncture at 0 h (pre-administration), 0.083, 0.25, 0.5, 1, 2, 4, 6, 8, and 24 h after administration, and placed in an anticoagulant tube added with heparin sodium. The mixture was thoroughly vortexed and mixed, and centrifuged at 6000 g for 3 minutes at 2-8° C. For oral administration, blood was collected via the cheek vein puncture at 0 h (pre-administration), 0.083, 0.25, 0.5, 1, 2, 4, 6, 8, and 24 h after administration, and placed in an anticoagulant tube added with heparin sodium. The mixture was thoroughly vortexed and mixed, and centrifuged at 6000 g for 3 minutes at 2-8° C. Plasma concentrations were determined by LC-MS/MS method, and relevant pharmacokinetic parameters were calculated using Phoenix WinNonlin8.2.0 pharmacokinetic software with non-compartmental model linear-log trapezoidal method.
• The test compounds, as clear solutions, were administered intravenously through the tail vein to CD-1 mice (fasted overnight) (vehicle: 10% DMSO/10% solutol/80% H2O or 5% DMSO/10% solutol/85% H2O), or intragastrically administered to CD-1 mice (fasted overnight). For intravenous injection, blood was collected via the saphenous vein puncture at 0 h (pre-administration), 0.083, 0.25, 0.5, 1, 2, 4, 8, and 24 h after administration, and placed in a EDTA-K2 anticoagulant tube. The mixture was thoroughly vortexed and mixed, and centrifuged at 3200 g for 10 minutes at 4° C. to obtain plasma. For oral administration, blood was collected via the saphenous vein puncture at 0 h (pre-administration), 0.083, 0.25, 0.5, 1, 2, 4, 8, and 24 h after administration, and placed in a EDTA-K2 anticoagulant tube. The mixture was thoroughly vortexed and mixed, and centrifuged at 3200 g for 10 minutes at 4° C. to obtain plasma. Plasma concentrations were determined by LC-MS/MS method, and relevant pharmacokinetic parameters were calculated using Phoenix WinNonlin 6.3 pharmacokinetic software with non-compartmental model linear-log trapezoidal method.

IKZF1 = target: T2, IKZF1 (Homo sapiens, UniProt Q13422+Q96SW2); assay: In Cell Western of IKZF1 protein expression level in MM.1S cells; type: cell-based; details: IKZF1, MM.1S cells, 24 hours; for Dmax: MM1.S, read-out: Maximum degradation rate Dmax
T2 construct: host or cells: MM.1S cells
Protocol: Experimental objective: The experiment aims to assess the degradation effect of the test compounds on IKZF1 and 1KZF3 proteins in MM.1S cells by evaluating the impact of the test compounds on the expression levels of IKZF1 and IZKZF3 proteins in MM.1S cells.
• Cell lines: MMN.1 S cell (sourced from ATCC; Cat. No CRL-2974) • Negative control: 0.100 DMSO.
• 1) Log phase MM.1 S cells were plated in a 96-well plate at 1.2×10^5 cells per well and cultured overnight; • 2) The next day, compounds were added with a starting concentration of 300 nM, diluted threefold across three replicate wells for 10 concentration gradients (including DMSO), and the cells were incubated for 24 hours in an incubator; • 3) The cells were centrifuged, and the supernatant was carefully removed. 150 μL of 4% paraformaldehyde fixative was added along the wall of the wells, avoiding contact with the bottom cells, and the cells were incubated at room temperature for 20 minutes; • 4) Lysis buffer was prepared by mixing 0.5 mL of 10% Triton X-100 with 49.5 mL of PBS until homogenous; • 5) 200 μL of lysis buffer was added along the well walls, again avoiding the bottom cells, and incubated on a shaker at room temperature for 5 minutes; • 6) The wells were washed four times; • 7) 150 μL of Licor […] Blocking Buffer was added along the well walls, avoiding the bottom cells, and the cells were incubated on a shaker at room temperature for 1.5 hours; • 8) Ikaros (D6N9Y) Rabbit mAb, Aiolos (D1C1E) Rabbit mAb and GAPDH mouse mAb (proteintech, 60004-1-Ig) were diluted at a 1:100 ratio using antibody dilution buffer; • 9) 50 μL of mixed antibody was added to each well with three replicate wells, and the cells were incubated overnight on a shaker at 4° C.; • 10) PBST (PBS with 0.1% Tween 20) was prepared; • 11) The primary antibodies were removed, and 200 μL of PBST was added along the well walls, avoiding the bottom cells, and the cells were incubated on a shaker at room temperature for 5 minutes; • 12) The wells were washed four times; • 13) Secondary antibody dilution buffer was prepared by adding Tween 20 to Licor […] Blocking Buffer to a final concentration of 0.2%; • 14) Fluorescent secondary antibodies were diluted in the dark at a 1:800 ratio. To 400 μL of secondary antibody dilution solution, 0.5 μL of each IRDye 800CW and IRDye 680CW (corresponding to the primary antibodies) was added. • 15) 50 μL of the diluted fluorescent secondary antibodies was added to each well and the cells were incubated on a shaker at room temperature in the dark for 60 minutes; • 16) The secondary antibodies were removed, and 200 μL of PBST was added along the well walls, avoiding the bottom cells, and the cells were incubated on a shaker at room temperature in the dark for 5 minutes; • 17) The wells were washed four times; immediately after washing, the Odyssey Gel Imaging System was used for detection at dual wavelengths of 700 nm and 800 nm.
Using GraphPad Prism 6 software, inhibition rate data was entered to fit the curve and calculate the DC50 value.

T2 sequence (Q13422 whole entry): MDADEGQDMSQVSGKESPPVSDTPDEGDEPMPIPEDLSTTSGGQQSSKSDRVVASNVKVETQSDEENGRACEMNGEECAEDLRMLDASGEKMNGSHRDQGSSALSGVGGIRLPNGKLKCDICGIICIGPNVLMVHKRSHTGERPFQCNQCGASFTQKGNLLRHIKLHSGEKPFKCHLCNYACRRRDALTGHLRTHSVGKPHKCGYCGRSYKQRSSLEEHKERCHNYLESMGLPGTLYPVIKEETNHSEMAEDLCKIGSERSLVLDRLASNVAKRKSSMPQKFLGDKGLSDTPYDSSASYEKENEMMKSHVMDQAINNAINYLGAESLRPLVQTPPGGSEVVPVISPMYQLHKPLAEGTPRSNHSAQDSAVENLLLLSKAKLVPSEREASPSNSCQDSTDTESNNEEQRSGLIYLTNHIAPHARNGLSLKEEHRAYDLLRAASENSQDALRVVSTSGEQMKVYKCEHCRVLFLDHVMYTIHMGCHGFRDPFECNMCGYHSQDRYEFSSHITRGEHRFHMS
T2 sequence (Q96SW2 whole entry): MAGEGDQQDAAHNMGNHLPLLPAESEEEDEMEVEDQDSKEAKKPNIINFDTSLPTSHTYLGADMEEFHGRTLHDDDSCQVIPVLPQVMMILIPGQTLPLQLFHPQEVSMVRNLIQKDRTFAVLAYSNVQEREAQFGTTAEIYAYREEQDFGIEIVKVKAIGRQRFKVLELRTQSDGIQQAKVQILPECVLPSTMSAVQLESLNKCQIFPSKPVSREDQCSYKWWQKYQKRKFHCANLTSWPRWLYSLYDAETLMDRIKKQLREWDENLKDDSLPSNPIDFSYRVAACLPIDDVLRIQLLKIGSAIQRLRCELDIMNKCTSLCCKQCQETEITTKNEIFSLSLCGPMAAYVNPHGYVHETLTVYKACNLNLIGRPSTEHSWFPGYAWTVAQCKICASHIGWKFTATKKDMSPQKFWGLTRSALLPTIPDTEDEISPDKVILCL
T2 sequence (Q16531 whole entry partner): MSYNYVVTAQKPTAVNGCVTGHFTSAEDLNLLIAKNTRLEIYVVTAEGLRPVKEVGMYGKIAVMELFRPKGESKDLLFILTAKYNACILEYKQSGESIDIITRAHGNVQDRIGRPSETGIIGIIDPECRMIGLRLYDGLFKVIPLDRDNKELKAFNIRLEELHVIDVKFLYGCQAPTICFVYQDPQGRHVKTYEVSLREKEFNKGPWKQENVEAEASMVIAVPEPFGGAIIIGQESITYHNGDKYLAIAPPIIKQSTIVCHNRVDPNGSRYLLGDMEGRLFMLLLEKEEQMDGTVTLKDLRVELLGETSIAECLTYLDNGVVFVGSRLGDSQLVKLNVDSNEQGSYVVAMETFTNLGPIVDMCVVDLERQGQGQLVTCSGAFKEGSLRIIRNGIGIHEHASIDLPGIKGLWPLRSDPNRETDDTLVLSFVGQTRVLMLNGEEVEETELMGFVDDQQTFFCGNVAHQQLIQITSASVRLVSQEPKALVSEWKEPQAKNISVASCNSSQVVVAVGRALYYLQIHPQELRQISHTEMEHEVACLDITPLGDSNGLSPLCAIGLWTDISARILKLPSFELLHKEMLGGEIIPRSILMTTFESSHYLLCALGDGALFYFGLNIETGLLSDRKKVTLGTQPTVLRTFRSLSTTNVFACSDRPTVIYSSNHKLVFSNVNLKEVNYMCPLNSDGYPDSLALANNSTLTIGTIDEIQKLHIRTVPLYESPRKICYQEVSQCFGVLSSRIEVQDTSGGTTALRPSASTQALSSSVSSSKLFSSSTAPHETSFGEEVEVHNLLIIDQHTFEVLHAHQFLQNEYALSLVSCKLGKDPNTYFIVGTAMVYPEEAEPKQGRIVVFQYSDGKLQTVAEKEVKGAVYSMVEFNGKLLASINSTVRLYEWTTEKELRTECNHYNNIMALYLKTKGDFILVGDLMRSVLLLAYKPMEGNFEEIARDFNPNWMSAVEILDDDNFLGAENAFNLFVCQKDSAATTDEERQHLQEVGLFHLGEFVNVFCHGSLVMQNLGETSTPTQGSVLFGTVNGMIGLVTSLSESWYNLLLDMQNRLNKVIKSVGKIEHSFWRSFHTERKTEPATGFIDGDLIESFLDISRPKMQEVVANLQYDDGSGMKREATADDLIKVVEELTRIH

Row | SMILES | DC50 (IRAK4) | Dmax (IRAK4) | Area under drug-time curve (0-inf) [1] | Peak concentration [1] | Time to peak concentration [1] | DC50 (IKZF1) | Dmax (IKZF1)
1 | CC(C)(O)c1cc2nc([C@H]3CC[C@H](CN4CCC(C(F)(F)C(=O)Nc5cccc6c5ccc5onc(C7CCC(=O)NC7=O)c56)CC4)CC3)sc2cc1NC(=O)c1cccc(C(F)(F)F)n1 (some centres unmarked) [Formate of WX019] | 15.1 nM | 92% | 5.10 µM·h | 0.34 µM | 3.33 h |  | 
2 | CC(C)(O)c1cc2nc([C@H]3CC[C@H](CN4CCC(C(F)(F)C(=O)Nc5cccc6c(C7CCC(=O)NC7=O)noc56)CC4)CC3)sc2cc1NC(=O)c1cccc(C(F)(F)F)n1 (some centres unmarked) [Formate of WX023] | 7.16 nM | 114% |  |  |  | 31.3 nM | 57.2%
3 | O=C1CCC(c2noc3c(NC(=O)C(F)(F)C4CCN(C[C@H]5CC[C@H](n6cc(NC(=O)c7coc(-c8ccnc(NCC9CC9)c8)n7)c(C(F)F)n6)CC5)CC4)cccc23)C(=O)N1 (some centres unmarked) [Formate of WX024] | 1.75 nM | 117% |  |  |  | 35.2 nM | 60.8%
4 | CC(C)(O)c1cc2nc([C@H]3CC[C@H](CN4CCN(CC(=O)Nc5cccc6c(C7CCC(=O)NC7=O)noc56)CC4)CC3)sc2cc1NC(=O)c1cccc(C(F)(F)F)n1 (some centres unmarked) [Formate of WX029] | 4.26 nM | 112% |  |  |  | 38.8 nM | 61.8%
5 | O=C1CCC(c2coc3ccc(NC(=O)CN4CCN(C[C@H]5CC[C@H](n6cc(NC(=O)c7coc(-c8ccnc(NCC9CC9)c8)n7)c(C(F)F)n6)CC5)CC4)cc23)C(=O)N1 (some centres unmarked) [Hydrochloride of WX001] | 76.4 nM | 54.3% |  |  |  |  | 
6 | CN(CCCOCCCc1ccc2c(ccc3occ(C4CCC(=O)NC4=O)c32)c1)C[C@H]1CC[C@H](n2cc(NC(=O)c3coc(-c4ccnc(NCC5CC5)c4)n3)c(C(F)F)n2)CC1 (some centres unmarked) [Hydrochloride of WX008] | 122 nM | 82.2% |  |  |  | 4.66 nM | 81.4%
7 | CN(CCCOCCCc1cccc2c1ccc1onc(C3CCC(=O)NC3=O)c12)CC1CCC(n2cc(NC(=O)c3coc(-c4ccnc(NCC5CC5)c4)n3)c(C(F)F)n2)CC1 (centres unmarked) [Hydrochloride of WX013] | 48.7 nM | 101% |  |  |  |  | 
8 | O=C1CCC(c2noc3ccc4cc(NC(=O)CN5CCN(CC6CCC(n7cc(NC(=O)c8coc(-c9ccnc(NCC%10CC%10)c9)n8)c(C(F)F)n7)CC6)CC5)ccc4c23)C(=O)N1 (centres unmarked) [Hydrochloride of WX015] | 47.1 nM | 100% |  |  |  | 7.7 nM | 81.8%
9 | CN(CCCOCCCc1cccc2c1ccc1occ(C3CCC(=O)NC3=O)c12)CC1CCC(n2cc(NC(=O)c3coc(-c4ccnc(NCC5CC5)c4)n3)c(C(F)F)n2)CC1 (centres unmarked) [Trifluoroacetate of WX010] | 50.2 nM | 81.7% |  |  |  |  | 
10 | O=C1CCC(c2coc3ccc4cc(NC(=O)CN5CCN(C[C@H]6CC[C@H](n7cc(NC(=O)c8coc(-c9ccnc(NCC%10CC%10)c9)n8)c(C(F)F)n7)CC6)CC5)ccc4c23)C(=O)N1 (some centres unmarked) [WX007] | 35.1 nM | 97.4% |  |  |  |  | 
11 | CC(C)(O)c1cc2nc([C@H]3CC[C@H](CN4CC5(CC(CCNc6ccc7c(ccc8onc(C9CCC(=O)NC9=O)c87)c6)C5)C4)CC3)sc2cc1NC(=O)c1cccc(C(F)(F)F)n1 (some centres unmarked) [WX021] |  |  |  |  |  | 2.66 nM | 87.6%
